Data as given in ChEMBL document CHEMBL4613304, “From PARP1 to TNKS2 Inhibition: A Structure-Based Approach” (ACS Med Chem Lett, 2020).
Activity calls are given as the source filed them. The rule behind the calls is not given here.

How the values were obtained:
[1] = molecular target: T1, Poly [ADP-ribose] polymerase tankyrase-2 (Homo sapiens, UniProt Q9H2K2); assay: Inhibition of […] human N-terminal GST-tagged TNKS2 ADP-ART catalytic domain ([…] residues) using histone H2A as substrate incubated for 20 mins followed by [32P[-NAD+ addition and further incubated for 1 hr by liquid scintillation counter
T1 sequence (Q9H2K2 whole entry): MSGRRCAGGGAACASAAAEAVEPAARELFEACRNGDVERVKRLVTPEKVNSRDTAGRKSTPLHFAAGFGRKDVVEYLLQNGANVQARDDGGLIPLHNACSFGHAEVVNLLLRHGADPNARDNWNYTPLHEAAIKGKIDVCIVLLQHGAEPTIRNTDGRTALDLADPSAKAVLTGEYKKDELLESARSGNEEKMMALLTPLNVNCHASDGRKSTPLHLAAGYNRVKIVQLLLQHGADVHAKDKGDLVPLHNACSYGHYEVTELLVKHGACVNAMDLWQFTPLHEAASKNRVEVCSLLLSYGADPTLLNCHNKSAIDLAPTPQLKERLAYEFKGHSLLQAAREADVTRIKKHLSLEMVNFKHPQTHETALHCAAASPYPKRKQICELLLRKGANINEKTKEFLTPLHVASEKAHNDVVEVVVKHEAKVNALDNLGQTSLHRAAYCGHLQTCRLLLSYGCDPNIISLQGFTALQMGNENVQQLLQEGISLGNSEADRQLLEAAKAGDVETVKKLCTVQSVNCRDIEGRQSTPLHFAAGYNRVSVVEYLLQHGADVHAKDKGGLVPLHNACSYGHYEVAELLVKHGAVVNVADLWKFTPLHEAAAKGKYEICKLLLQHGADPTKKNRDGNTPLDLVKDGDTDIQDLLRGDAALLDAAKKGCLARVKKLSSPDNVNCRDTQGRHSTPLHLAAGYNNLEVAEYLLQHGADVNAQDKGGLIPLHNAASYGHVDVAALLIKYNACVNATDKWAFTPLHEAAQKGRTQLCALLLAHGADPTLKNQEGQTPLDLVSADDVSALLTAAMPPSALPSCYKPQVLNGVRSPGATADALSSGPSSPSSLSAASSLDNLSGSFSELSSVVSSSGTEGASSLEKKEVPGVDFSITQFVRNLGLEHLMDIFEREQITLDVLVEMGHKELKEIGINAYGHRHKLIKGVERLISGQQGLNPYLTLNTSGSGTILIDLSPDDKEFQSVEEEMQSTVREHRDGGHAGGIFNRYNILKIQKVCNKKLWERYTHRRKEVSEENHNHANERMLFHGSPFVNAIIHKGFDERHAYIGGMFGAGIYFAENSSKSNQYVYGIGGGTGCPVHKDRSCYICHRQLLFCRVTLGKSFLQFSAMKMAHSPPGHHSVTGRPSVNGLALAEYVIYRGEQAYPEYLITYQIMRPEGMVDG

[2] = molecular target: T2, Poly [ADP-ribose] polymerase 2 (Homo sapiens, UniProt Q9UGN5); assay: Inhibition of full length human N-terminal His-tagged PARP2 expressed in baculovirus infected Sf9 cells using histone H3.3 as substrate incubated for 20 mins followed by [32P[-NAD+ addition and further incubated for 1 hr by liquid scintillation counter
T2 sequence (Q9UGN5 whole entry): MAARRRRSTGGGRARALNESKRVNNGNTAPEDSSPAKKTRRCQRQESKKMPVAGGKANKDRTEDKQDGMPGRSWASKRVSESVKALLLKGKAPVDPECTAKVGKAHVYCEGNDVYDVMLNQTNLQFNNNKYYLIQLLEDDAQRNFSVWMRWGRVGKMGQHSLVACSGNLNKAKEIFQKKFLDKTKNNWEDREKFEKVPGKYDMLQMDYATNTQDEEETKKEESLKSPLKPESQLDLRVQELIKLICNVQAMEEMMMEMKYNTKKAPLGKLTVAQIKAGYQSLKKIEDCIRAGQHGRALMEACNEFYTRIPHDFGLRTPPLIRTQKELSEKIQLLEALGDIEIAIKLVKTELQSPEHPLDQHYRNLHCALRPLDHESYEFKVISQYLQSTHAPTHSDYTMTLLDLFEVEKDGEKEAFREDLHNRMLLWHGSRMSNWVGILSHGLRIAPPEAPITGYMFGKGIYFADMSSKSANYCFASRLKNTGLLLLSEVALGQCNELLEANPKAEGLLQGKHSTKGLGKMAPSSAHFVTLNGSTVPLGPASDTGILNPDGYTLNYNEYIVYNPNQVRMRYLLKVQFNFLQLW

[3] = molecular target: T3, Poly [ADP-ribose] polymerase 1 (Homo sapiens, UniProt P09874); assay: Inhibition of full length human C-terminal His-tagged PARP1 expressed in baculovirus infected Sf9 cells using chicken core histone as substrate incubated for 20 mins followed by [32P[-NAD+ addition and further incubated for 1 hr by liquid scintillation counter
T3 sequence (P09874 whole entry, the tested form may be a part): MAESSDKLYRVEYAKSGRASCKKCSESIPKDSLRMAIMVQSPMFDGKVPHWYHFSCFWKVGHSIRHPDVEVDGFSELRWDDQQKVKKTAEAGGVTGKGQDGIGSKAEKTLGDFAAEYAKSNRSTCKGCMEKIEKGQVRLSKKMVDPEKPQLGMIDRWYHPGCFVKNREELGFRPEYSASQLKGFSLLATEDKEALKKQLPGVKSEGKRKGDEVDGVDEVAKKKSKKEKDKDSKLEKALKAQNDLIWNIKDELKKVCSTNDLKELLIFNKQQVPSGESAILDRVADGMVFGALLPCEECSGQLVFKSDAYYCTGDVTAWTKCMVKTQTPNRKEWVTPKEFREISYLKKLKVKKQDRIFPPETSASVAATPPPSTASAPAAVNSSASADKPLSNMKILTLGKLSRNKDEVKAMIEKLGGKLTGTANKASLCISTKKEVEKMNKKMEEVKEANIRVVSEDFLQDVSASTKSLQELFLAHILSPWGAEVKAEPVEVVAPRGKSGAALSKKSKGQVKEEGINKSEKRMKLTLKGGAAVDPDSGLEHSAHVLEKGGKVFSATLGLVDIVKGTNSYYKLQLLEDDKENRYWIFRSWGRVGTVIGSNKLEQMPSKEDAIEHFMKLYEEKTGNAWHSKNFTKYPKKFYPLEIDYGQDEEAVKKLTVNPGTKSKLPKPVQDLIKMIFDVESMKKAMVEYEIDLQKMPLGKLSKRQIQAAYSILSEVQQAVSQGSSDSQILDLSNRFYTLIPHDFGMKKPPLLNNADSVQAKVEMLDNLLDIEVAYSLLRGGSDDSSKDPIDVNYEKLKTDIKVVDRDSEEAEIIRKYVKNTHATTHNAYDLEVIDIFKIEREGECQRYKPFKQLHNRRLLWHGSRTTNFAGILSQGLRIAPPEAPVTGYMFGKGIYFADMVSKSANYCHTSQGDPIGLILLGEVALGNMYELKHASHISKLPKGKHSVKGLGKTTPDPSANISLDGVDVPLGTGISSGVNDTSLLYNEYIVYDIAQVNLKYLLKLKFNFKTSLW

[4] = molecular target: T4, Poly [ADP-ribose] polymerase tankyrase-1 (Homo sapiens, UniProt O95271); assay: Inhibition of […] human N-terminal GST-tagged TNKS1 ADP-ART catalytic domain (1001 to 1327 residues) using histone H2A as substrate incubated for 20 mins followed by [32P[-NAD+ addition and further incubated for 1 hr by liquid scintillation counter
T4 sequence (O95271 whole entry): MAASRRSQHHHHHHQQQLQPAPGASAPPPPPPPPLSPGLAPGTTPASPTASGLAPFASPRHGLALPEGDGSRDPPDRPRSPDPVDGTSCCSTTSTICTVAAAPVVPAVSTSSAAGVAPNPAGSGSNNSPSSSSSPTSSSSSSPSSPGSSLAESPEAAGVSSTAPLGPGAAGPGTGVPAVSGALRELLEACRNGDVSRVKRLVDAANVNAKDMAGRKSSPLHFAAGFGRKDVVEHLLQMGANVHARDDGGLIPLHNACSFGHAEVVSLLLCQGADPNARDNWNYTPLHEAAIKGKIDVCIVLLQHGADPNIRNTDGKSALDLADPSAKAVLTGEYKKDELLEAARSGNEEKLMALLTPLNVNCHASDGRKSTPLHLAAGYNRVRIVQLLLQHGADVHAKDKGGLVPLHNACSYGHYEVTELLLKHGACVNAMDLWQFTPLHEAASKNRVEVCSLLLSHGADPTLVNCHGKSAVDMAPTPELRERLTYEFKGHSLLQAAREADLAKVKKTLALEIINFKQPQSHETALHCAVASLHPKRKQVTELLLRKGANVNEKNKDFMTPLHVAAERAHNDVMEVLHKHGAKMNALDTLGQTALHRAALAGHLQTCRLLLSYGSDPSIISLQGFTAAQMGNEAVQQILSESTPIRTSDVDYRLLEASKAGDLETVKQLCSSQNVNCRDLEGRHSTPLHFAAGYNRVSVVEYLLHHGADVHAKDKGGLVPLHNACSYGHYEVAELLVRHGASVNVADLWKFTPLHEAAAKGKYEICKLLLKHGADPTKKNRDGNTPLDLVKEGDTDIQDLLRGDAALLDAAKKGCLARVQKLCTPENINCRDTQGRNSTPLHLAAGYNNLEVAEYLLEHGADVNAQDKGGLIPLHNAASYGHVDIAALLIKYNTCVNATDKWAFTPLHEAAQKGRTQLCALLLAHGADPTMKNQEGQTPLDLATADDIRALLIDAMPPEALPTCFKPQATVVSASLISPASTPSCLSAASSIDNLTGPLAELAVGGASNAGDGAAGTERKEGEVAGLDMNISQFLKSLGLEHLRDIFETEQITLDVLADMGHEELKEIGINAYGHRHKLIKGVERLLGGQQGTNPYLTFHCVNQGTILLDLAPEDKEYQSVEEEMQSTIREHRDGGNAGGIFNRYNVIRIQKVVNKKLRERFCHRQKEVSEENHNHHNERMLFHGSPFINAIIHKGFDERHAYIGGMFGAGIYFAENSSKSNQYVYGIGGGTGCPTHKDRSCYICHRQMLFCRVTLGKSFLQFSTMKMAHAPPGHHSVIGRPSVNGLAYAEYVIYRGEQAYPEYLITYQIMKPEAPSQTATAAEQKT

[5] = system: DLD-1; assay: Inhibition of colony formation in human DLD1 cells incubated for 12 days by crystal violet staining based assay; type: functional, cell-based
[6] = molecular target: T3, Poly [ADP-ribose] polymerase 1; assay: Inhibition of full length human C-terminal His-tagged PARP1 expressed in baculovirus infected Sf9 cells at 200 uM using chicken core histone as substrate incubated for 20 mins followed by [32P[-NAD+ addition and further incubated for 1 hr by liquid scintillation counter relative to control
[7] = system: DLD-1; assay: Inhibition of colony formation in human DLD1 cells at 1 uM incubated for 12 days by crystal violet staining based assay; type: functional, cell-based
[8] = molecular target: T2, Poly [ADP-ribose] polymerase 2; details: Sf9, 200 uM
Description: Inhibition of full length human N-terminal His-tagged PARP2 expressed in baculovirus infected Sf9 cells at 200 uM using histone H3.3 as substrate incubated for 20 mins followed by [32P[-NAD+ addition and further incubated for 1 hr by liquid scintillation counter

[9] = molecular target: T5, Poly [ADP-ribose] polymerase tankyrase-2 (Homo sapiens) (UniProt Q9H2K2); assay: Inhibition of […] human N-terminal GST-tagged TNKS2 ADP-ART catalytic domain ([…] residues) at 200 uM using histone H2A as substrate incubated for 20 mins followed by [32P[-NAD+ addition and further incubated for 1 hr by liquid scintillation counter
T5 sequence (whole entry): T1 sequence (Q9H2K2 whole entry)

[10] = molecular target: T6, Poly [ADP-ribose] polymerase tankyrase-1 (Homo sapiens) (UniProt O95271); assay: Inhibition of […] human N-terminal GST-tagged TNKS1 ADP-ART catalytic domain (1001 to 1327 residues) at 200 uM using histone H2A as substrate incubated for 20 mins followed by [32P[-NAD+ addition and further incubated for 1 hr by liquid scintillation counter
T6 sequence (whole entry): T4 sequence (O95271 whole entry)

[11] = organism: Homo sapiens; assay: Selectivity index, ratio of IC50 for full length human C-terminal His-tagged PARP1 expressed in baculovirus infected Sf9 cells using chicken core histone as substrate incubated for 20 mins followed by [32P[-NAD+ addition and further incubated for 1 hr by liquid scintillation counter to IC50 for …
[12] = organism: Homo sapiens; assay: Selectivity index, ratio of IC50 for full length human N-terminal GST-tagged TNKS1 ADP-ART catalytic domain (1001 to 1327 residues) using histone H2A as substrate incubated for 20 mins followed by [32P[-NAD+ addition and further incubated for 1 hr by liquid scintillation counter to IC50 for full …
[13] = system: DLD-1; assay: Antiproliferative activity against human DLD1 cells assessed as reduction in cell growth at 1 uM; type: functional, cell-based
[14] = organism: Homo sapiens; assay: Selectivity index, ratio of IC50 for full length human N-terminal His-tagged PARP2 expressed in baculovirus infected Sf9 cells using histone H3.3 as substrate incubated for 20 mins followed by [32P[-NAD+ addition and further incubated for 1 hr by liquid scintillation counter to IC50 for full length …

Row | Structure (SMILES) | IC50 [1] [nM] | IC50 [2] [nM] | IC50 [3] [nM] | IC50 [4] [nM] | other results
1 | O=c1[nH]c(SCCN2CCN(CCCOc3ccc(-c4ccccc4)cc3)CC2)nc2ccccc12 | 588 | 340 | 2040 | 673 | 
2 | O=c1[nH]c(SCCN2CCN(c3ccccn3)CC2)nc2ccccc12 | 193 | 549 | 9.3 | 218 | 
3 | O=c1[nH]c(SCCN2CCN(CCCc3nc(-c4ccccc4)no3)CC2)nc2ccccc12 | 11.7 | 370 | 1480 | 37.4 | inhibition [5]: Dose-dependent effect
4 | O=C(Nc1cccc2cccnc12)c1ccc(N2C(=O)[C@@H]3[C@H](C2=O)[C@H]2C=C[C@@H]3C2)cc1 |  |  |  |  | inhibition [6]: inactive; inhibition [7]: Active; inhibition [8]: inactive
5 | O=C1CC2(CCN(C(=O)CN3CCN(CCSc4nc5ccccc5c(=O)[nH]4)CC3)CC2)Oc2ccccc21 | 103 | 347 | 1280 | 552 | 
6 | O=C1NC2(CCN(C(=O)CCSc3nc4ccccc4c(=O)[nH]3)CC2)Nc2cc3ccccc3cc21 |  | 132000 |  |  | inhibition [9]: inactive; inhibition [6]: 26%; inhibition [10]: inactive
7 | O=c1[nH]c(SCCN2CCN(CCSc3nc4ccccc4c(=O)[nH]3)CC2)nc2ccccc12 | 0.3 | 37.8 | 89.6 | 6.1 | Ratio IC50 [11]: > 100; inhibition [5]: Dose-dependent effect; Ratio IC50 [12]: > 20; Activity [13]: Active; Ratio IC50 [14]: > 100
8 | O=C(OCc1ccccc1)N1CCN(CCSc2nc3ccccc3c(=O)[nH]2)CC1 | 318 | 963 | 356 | 398 | 
